Source: the supplement of paper PMC9663587

Experiments:
[1] = compound: CCN1CCN(Cc2ccc(Nc3ncc(F)c(-c4cc(F)c5nc(C)n(C(C)C)c5c4)n3)nc2)CC1; experiment: increase in dead-cell fraction, 72 h; higher = more death;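 note: breast cancer cell lines in 384-well plates, stained with Hoechst plus LIVE/DEAD far red dye and imaged, cells above an LDR intensity threshold counted dead, Hoechst-negative corpses included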
Flavopiridol [2] = compound: T1, CN1CC[C@H](c2c(O)cc(O)c3c(=O)cc(-c4ccccc4Cl)oc23)[C@H](O)C1 [Flavopiridol]; experiment: as above
THZ531 = compound: CN(C)C/C=C/C(=O)Nc1ccc(C(=O)N2CCC[C@@H](Nc3ncc(Cl)c(-c4c[nH]c5ccccc45)n3)C2)cc1 [THZ531]; experiment: GR value, 72 h; higher = faster growth (1 = untreated, <0 = killing);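 note: breast cancer and non-malignant breast epithelial lines, nine half-log doses, viable cells counted by Hoechst and LIVE/DEAD dye imaging versus time-zero plates and DMSO controls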
Neratinib/HKI272 = compound: CCOc1cc2ncc(C#N)c(Nc3ccc(OCc4ccccn4)c(Cl)c3)c2cc1NC(=O)/C=C/CN(C)C [Neratinib/HKI272]; experiment: as above
[3] = compound: CCN1CCN(Cc2ccc(Nc3ncc(F)c(-c4cc(F)c5nc(C)n(C(C)C)c5c4)n3)nc2)CC1; experiment: as above
[4] = compound: CCc1cnn2c(NCc3ccc[n+]([O-])c3)cc(N3CCCC[C@H]3CCO)nc12; experiment: as above
THZ1 = compound: CN(C)C/C=C/C(=O)Nc1ccc(C(=O)Nc2cccc(Nc3ncc(Cl)c(-c4c[nH]c5ccccc45)n3)c2)cc1 [THZ1]; experiment: as above
Flavopiridol [5] = compound: T1, Flavopiridol; experiment: as above
BSJ-03-123 = compound: CC(=O)c1c(C)c2cnc(Nc3ccc(N4CCN(CCOCCOCCOCCNC(=O)COc5cccc6c5C(=O)N(C5CCC(=O)NC5=O)C6=O)CC4)cn3)nc2n(C2CCCC2)c1=O [BSJ-03-123]; experiment: as above
[6] = compound: CC(=O)c1c(C)c2cnc(Nc3ccc(N4CCNCC4)cn3)nc2n(C2CCCC2)c1=O; experiment: as above
LEE011/Ribociclib = compound: CN(C)C(=O)c1cc2cnc(Nc3ccc(N4CCNCC4)cn3)nc2n1C1CCCC1 [LEE011/Ribociclib]; experiment: as above
YKL-5-124 = compound: C=CC(=O)Nc1ccc(C(=O)Nc2[nH]nc3c2CN(C(=O)N[C@H](CN(C)C)c2ccccc2)C3(C)C)cc1 [YKL-5-124]; experiment: as above

## MDAMB468
[1]; 0.001 µM
  increase in dead-cell fraction: 0.0107
[1]; 0.003162 µM
  increase in dead-cell fraction: 0.0019
[1]; 0.01 µM
  increase in dead-cell fraction: -0.0006
[1]; 0.03162 µM
  increase in dead-cell fraction: -0.0012
[1]; 0.1 µM
  increase in dead-cell fraction: -0.0016
[1]; 0.3162 µM
  increase in dead-cell fraction: -0.0021
[1]; 1 µM
  increase in dead-cell fraction: 0.019
[1]; 3.162 µM
  increase in dead-cell fraction: 0.101
[1]; 10 µM
  increase in dead-cell fraction: 0.545
Flavopiridol [2]; 0.0001 µM
  increase in dead-cell fraction: -0.0044
Flavopiridol [2]; 0.0003162 µM
  increase in dead-cell fraction: 0.0084
Flavopiridol [2]; 0.001 µM
  increase in dead-cell fraction: -0.004
Flavopiridol [2]; 0.003162 µM
  increase in dead-cell fraction: -0.0097
Flavopiridol [2]; 0.01 µM
  increase in dead-cell fraction: 0.0094
Flavopiridol [2]; 0.03162 µM
  increase in dead-cell fraction: 0.002
Flavopiridol [2]; 0.1 µM
  increase in dead-cell fraction: 0.0269
Flavopiridol [2]; 0.3162 µM
  increase in dead-cell fraction: 0.0941
Flavopiridol [2]; 1 µM
  increase in dead-cell fraction: 0.274
THZ531; 0.0001 µM
  GR value: 1.02 GR
THZ531; 0.0003162 µM
  GR value: 1 GR
THZ531; 0.001 µM
  GR value: 0.926 GR
THZ531; 0.003162 µM
  GR value: 1.04 GR
THZ531; 0.01 µM
  GR value: 0.906 GR
THZ531; 0.03162 µM
  GR value: 0.636 GR
THZ531; 0.1 µM
  GR value: 0.082 GR
THZ531; 0.3162 µM
  GR value: -0.19 GR
THZ531; 1 µM
  GR value: -0.188 GR
Neratinib/HKI272; 0.0003162 µM
  GR value: 0.947 GR
Neratinib/HKI272; 0.001 µM
  GR value: 0.97 GR
Neratinib/HKI272; 0.003162 µM
  GR value: 0.983 GR
Neratinib/HKI272; 0.01 µM
  GR value: 0.969 GR
Neratinib/HKI272; 0.03162 µM
  GR value: 0.838 GR
Neratinib/HKI272; 0.1 µM
  GR value: 0.56 GR
Neratinib/HKI272; 0.3162 µM
  GR value: 0.257 GR
Neratinib/HKI272; 1 µM
  GR value: -0.0811 GR
Neratinib/HKI272; 3.162 µM
  GR value: -0.395 GR
[3]; 0.001 µM
  GR value: 0.94 GR
[3]; 0.003162 µM
  GR value: 0.966 GR
[3]; 0.01 µM
  GR value: 0.979 GR
[3]; 0.03162 µM
  GR value: 1.04 GR
[3]; 0.1 µM
  GR value: 1.06 GR
[3]; 0.3162 µM
  GR value: 1.01 GR
[3]; 1 µM
  GR value: 0.811 GR
[3]; 3.162 µM
  GR value: 0.321 GR
[3]; 10 µM
  GR value: -0.34 GR
[4]; 0.0001 µM
  GR value: 0.988 GR
[4]; 0.0003162 µM
  GR value: 1.01 GR
[4]; 0.001 µM
  GR value: 0.985 GR
[4]; 0.003162 µM
  GR value: 1.03 GR
[4]; 0.01 µM
  GR value: 0.863 GR
[4]; 0.03162 µM
  GR value: -0.106 GR
[4]; 0.1 µM
  GR value: -0.255 GR
[4]; 0.3162 µM
  GR value: -0.339 GR
[4]; 1 µM
  GR value: -0.412 GR
THZ1; 0.0001 µM
  GR value: 1 GR
THZ1; 0.0003162 µM
  GR value: 1.07 GR
THZ1; 0.001 µM
  GR value: 1 GR
THZ1; 0.003162 µM
  GR value: 0.92 GR
THZ1; 0.01 µM
  GR value: 0.76 GR
THZ1; 0.03162 µM
  GR value: 0.375 GR
THZ1; 0.1 µM
  GR value: -0.131 GR
THZ1; 0.3162 µM
  GR value: -0.226 GR
THZ1; 1 µM
  GR value: -0.435 GR
Flavopiridol [5]; 0.0001 µM
  GR value: 0.989 GR
Flavopiridol [5]; 0.0003162 µM
  GR value: 0.962 GR
Flavopiridol [5]; 0.001 µM
  GR value: 0.929 GR
Flavopiridol [5]; 0.003162 µM
  GR value: 0.953 GR
Flavopiridol [5]; 0.01 µM
  GR value: 0.931 GR
Flavopiridol [5]; 0.03162 µM
  GR value: 0.898 GR
Flavopiridol [5]; 0.1 µM
  GR value: 0.662 GR
Flavopiridol [5]; 0.3162 µM
  GR value: 0.213 GR
Flavopiridol [5]; 1 µM
  GR value: -0.426 GR
BSJ-03-123; 0.001 µM
  GR value: 1 GR
BSJ-03-123; 0.003162 µM
  GR value: 0.923 GR
BSJ-03-123; 0.01 µM
  GR value: 0.902 GR
BSJ-03-123; 0.03162 µM
  GR value: 0.806 GR
BSJ-03-123; 0.1 µM
  GR value: 0.91 GR
BSJ-03-123; 0.3162 µM
  GR value: 0.771 GR
BSJ-03-123; 1 µM
  GR value: 0.636 GR
BSJ-03-123; 3.162 µM
  GR value: 0.476 GR
BSJ-03-123; 10 µM
  GR value: -0.0278 GR
[6]; 0.0003162 µM
  GR value: 0.963 GR
[6]; 0.001 µM
  GR value: 1.02 GR
[6]; 0.003162 µM
  GR value: 1.02 GR
[6]; 0.01 µM
  GR value: 1.05 GR
[6]; 0.03162 µM
  GR value: 1.02 GR
[6]; 0.1 µM
  GR value: 1.01 GR
[6]; 0.3162 µM
  GR value: 1.06 GR
[6]; 1 µM
  GR value: 1.05 GR
[6]; 3.162 µM
  GR value: 1.05 GR
LEE011/Ribociclib; 0.001 µM
  GR value: 0.985 GR
LEE011/Ribociclib; 0.003162 µM
  GR value: 1.04 GR
LEE011/Ribociclib; 0.01 µM
  GR value: 0.951 GR
LEE011/Ribociclib; 0.03162 µM
  GR value: 1.01 GR
LEE011/Ribociclib; 0.1 µM
  GR value: 1.05 GR
LEE011/Ribociclib; 0.3162 µM
  GR value: 0.965 GR
LEE011/Ribociclib; 1 µM
  GR value: 0.935 GR
LEE011/Ribociclib; 3.162 µM
  GR value: 1 GR
LEE011/Ribociclib; 10 µM
  GR value: 1.02 GR
YKL-5-124; 0.001 µM
  GR value: 0.23 GR
YKL-5-124; 0.003162 µM
  GR value: 0.077 GR
YKL-5-124; 0.01 µM
  GR value: 0 GR
YKL-5-124; 0.03162 µM
  GR value: -0.101 GR
YKL-5-124; 0.1 µM
  GR value: -0.149 GR
YKL-5-124; 0.3162 µM
  GR value: -0.177 GR
YKL-5-124; 1 µM
  GR value: -0.217 GR
YKL-5-124; 3.162 µM
  GR value: -0.309 GR
YKL-5-124; 10 µM
  GR value: -0.549 GR
